≈ marks a conversion by molar mass, not a printed value.
How the values were obtained:
Histone deacetylase 4 [1] = biological target: T1, Histone deacetylase 4 (Homo sapiens, UniProt P56524); assay: Inhibition of HDAC4 in human HeLa cells incubated for 1 hr by mass spectrometry method; format: cell-based
MCF7 [2] = assay: cells; details: Homo sapiens, MCF7, 72 h
Description: Antiproliferative activity against human MCF7 cells assessed as cell growth inhibition measured after 72 hrs by MTT assay

HepG2 [3] = assay: cells; details: Homo sapiens, HepG2, 72 h
Description: Antiproliferative activity against human HepG2 cells assessed as cell growth inhibition measured after 72 hrs by MTT assay

Histone deacetylase 1 [4] = biological target: T2, Histone deacetylase 1 (Homo sapiens, UniProt Q13547); assay: Inhibition of recombinant HDAC1 (unknown origin) using AMC-K(Ac)GL as substrate by fluorescence based analysis
[5] = biological target: T3, Protein deacetylase HDAC6 (Homo sapiens, UniProt Q9UBN7); assay: Inhibition of recombinant HDAC6 (unknown origin) using AMC-K(Ac)GL as substrate by fluorescence based analysis
HT-29 = assay: Inhibition of colony formation in human HT-29 cells at 0.5 to 5 uM measured after 10 days by methylene blue staining based analysis relative to control; format: functional; details: dose 0.5-5 µM, time 10 day
[6] = Inhibition of HDAC in Sprague-Dawley rat hepatocytes using Fluor de Lys as substrate incubated for 15 mins by fluorometric assay; format: cell-based; details: Hepatocyte, 0.25 h
P388 = assay: Cytotoxicity against mouse P388 cells assessed as cell growth inhibition; format: functional, cell-based
Histone deacetylase 1 [7] = biological target: T2, Histone deacetylase 1; assay: Inhibition of HDAC1 (unknown origin)
[8] = Half life in mouse; format: ADME, organism-based; details: in vivo
Histone deacetylase 4 [9] = biological target: T1, Histone deacetylase 4; assay: Inhibition of HDAC4 (unknown origin)
Histone deacetylase 5 = Histone deacetylase 5 (Homo sapiens, UniProt Q9UQL6); assay: Inhibition of HDAC5 (unknown origin)
[10] = biological target: T3, Protein deacetylase HDAC6; assay: Inhibition of HDAC6 (unknown origin)
MCF7 [11] = assay: cells; details: Homo sapiens
MCF10 = assay: Antiproliferative activity against human MCF10 cells assessed as cell growth inhibition; format: functional, cell-based
AGS = assay: Antiproliferative activity against human AGS cells assessed as cell growth inhibition; format: functional, cell-based
HepG2 [12] = assay: Antiproliferative activity against human HepG2 cells assessed as cell growth inhibition; format: functional, cell-based
Hep 3B2 = assay: Antiproliferative activity against human Hep3B cells assessed as cell growth inhibition; format: functional, cell-based
Huh-7 = assay: Antiproliferative activity against human Huh-7 cells assessed as cell growth inhibition; format: functional, cell-based
HA22T cell line = assay: Antiproliferative activity against human HA22T cell line assessed as cell growth inhibition; format: functional, cell-based
[13] = Cytotoxicity against human CCD-18Co assessed as cell growth inhibition; format: toxicity, cell-based; details: CCD-18Co cells
Tubulin beta = assay: Inhibition of beta-tubulin polymerization in human MCF7 cells using TMB as substrate incubated for 2 hrs by spectrophotometry analysis; format: cell-based
Histone deacetylase 1 [14] = biological target: T2, Histone deacetylase 1; assay: Inhibition of HDAC1 in human MCF7 cells using TMB as substrate incubated for 2 hrs by ELISA analysis; format: cell-based
Histone deacetylase 2 [15] = biological target: T4, Histone deacetylase 2 (Homo sapiens, UniProt Q92769); assay: Inhibition of HDAC2 in human MCF7 cells using TMB as substrate incubated for 2 hrs by ELISA analysis; format: cell-based
T47D [16] = assay: Antiproliferative activity against human T47D cells assessed as cell growth inhibition by burton method; format: functional, cell-based
BT-474 = assay: Antiproliferative activity against human BT-474 cells assessed as cell growth inhibition by SRB assay; format: functional, cell-based
MCF7 [17] = assay: cells; details: Homo sapiens; remark: listed apart in the source
Description: Antiproliferative activity against human MCF7 cells assessed as cell growth inhibition by SRB assay

Histone deacetylase 1 [18] = biological target: T2, Histone deacetylase 1; assay: Inhibition of human recombinant His-tagged HDAC1 expressed in baculovirus expression system incubated for 2 hrs by fluorescence based analysis
Histone deacetylase 2 [19] = biological target: T4, Histone deacetylase 2; assay: Inhibition of human recombinant full-length His-tagged HDAC2 expressed in baculovirus expression system incubated for 2 hrs by fluorescence based analysis
Histone deacetylase 3 = Histone deacetylase 3 (Homo sapiens, UniProt O15379); assay: Inhibition of human recombinant His-tagged HDAC3 expressed in baculovirus expression system incubated for 2 hrs by fluorescence based analysis
Histone deacetylase 8 = Histone deacetylase 8 (Homo sapiens, UniProt Q9BY41); assay: Inhibition of human recombinant His-tagged HDAC8 expressed in Escherichia coli incubated for 2 hrs by fluorescence based analysis
MDA-MB-231 = assay: Antiproliferative activity against human MDA-MB-231 cells assessed as cell growth inhibition; format: functional, cell-based
T47D [20] = assay: Antiproliferative activity against human T47D cells assessed as cell growth inhibition; format: functional, cell-based
BT-20 = assay: Antiproliferative activity against human BT-20 cells assessed as cell growth inhibition; format: functional, cell-based

T2 sequence (Q13547 whole entry): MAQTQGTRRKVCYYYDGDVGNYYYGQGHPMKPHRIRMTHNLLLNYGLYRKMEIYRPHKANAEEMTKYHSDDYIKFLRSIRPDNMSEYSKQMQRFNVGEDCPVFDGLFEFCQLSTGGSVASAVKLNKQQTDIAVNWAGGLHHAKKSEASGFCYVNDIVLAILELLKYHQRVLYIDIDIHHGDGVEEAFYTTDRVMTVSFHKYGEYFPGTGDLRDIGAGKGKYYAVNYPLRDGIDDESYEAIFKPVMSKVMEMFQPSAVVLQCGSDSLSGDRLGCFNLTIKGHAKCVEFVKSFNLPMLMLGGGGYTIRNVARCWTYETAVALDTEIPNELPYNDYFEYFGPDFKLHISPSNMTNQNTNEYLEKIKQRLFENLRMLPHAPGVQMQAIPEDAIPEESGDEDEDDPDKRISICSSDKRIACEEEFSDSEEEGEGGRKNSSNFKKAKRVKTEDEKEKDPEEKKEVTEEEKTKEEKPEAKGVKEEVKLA
T1 sequence (P56524 whole entry): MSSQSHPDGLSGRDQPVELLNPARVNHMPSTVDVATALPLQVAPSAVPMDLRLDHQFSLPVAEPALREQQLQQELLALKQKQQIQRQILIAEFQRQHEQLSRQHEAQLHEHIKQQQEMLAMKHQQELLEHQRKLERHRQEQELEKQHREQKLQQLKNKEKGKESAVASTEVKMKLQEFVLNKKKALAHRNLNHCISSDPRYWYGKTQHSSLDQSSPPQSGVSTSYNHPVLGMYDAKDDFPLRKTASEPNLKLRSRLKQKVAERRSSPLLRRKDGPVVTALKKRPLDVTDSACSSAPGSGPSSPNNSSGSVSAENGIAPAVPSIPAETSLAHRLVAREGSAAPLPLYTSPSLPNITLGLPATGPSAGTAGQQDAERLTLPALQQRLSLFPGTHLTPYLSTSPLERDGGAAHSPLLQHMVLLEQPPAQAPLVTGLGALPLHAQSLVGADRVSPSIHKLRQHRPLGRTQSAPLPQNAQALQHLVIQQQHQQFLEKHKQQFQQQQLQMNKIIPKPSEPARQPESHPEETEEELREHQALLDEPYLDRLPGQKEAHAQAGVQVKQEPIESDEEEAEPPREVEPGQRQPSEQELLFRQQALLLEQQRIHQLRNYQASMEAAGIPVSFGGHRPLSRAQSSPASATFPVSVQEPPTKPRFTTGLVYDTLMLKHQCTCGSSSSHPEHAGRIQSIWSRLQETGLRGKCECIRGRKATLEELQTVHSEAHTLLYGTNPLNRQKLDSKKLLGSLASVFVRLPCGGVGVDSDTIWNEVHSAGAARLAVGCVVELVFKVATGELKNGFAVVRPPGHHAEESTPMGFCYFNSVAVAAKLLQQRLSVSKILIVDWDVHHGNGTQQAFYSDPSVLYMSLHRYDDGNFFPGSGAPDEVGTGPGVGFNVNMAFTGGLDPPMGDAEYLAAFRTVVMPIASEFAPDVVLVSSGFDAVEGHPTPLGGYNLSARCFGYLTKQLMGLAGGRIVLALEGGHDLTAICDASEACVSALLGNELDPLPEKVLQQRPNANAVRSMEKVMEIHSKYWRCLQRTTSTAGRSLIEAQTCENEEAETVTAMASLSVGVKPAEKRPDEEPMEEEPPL
T4 sequence (Q92769 whole entry): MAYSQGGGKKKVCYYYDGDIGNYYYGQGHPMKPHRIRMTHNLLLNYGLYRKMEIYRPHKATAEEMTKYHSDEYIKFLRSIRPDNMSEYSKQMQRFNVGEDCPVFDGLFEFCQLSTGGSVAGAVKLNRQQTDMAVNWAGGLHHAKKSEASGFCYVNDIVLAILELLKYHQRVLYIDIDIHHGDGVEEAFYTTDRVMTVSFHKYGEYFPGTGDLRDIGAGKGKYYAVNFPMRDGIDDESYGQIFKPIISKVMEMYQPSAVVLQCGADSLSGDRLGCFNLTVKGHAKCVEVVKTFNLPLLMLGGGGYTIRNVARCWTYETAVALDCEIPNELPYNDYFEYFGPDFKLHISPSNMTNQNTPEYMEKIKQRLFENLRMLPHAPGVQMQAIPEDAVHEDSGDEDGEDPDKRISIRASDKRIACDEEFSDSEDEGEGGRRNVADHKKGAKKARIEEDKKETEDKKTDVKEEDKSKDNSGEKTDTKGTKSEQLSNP
T3 sequence (Q9UBN7 whole entry): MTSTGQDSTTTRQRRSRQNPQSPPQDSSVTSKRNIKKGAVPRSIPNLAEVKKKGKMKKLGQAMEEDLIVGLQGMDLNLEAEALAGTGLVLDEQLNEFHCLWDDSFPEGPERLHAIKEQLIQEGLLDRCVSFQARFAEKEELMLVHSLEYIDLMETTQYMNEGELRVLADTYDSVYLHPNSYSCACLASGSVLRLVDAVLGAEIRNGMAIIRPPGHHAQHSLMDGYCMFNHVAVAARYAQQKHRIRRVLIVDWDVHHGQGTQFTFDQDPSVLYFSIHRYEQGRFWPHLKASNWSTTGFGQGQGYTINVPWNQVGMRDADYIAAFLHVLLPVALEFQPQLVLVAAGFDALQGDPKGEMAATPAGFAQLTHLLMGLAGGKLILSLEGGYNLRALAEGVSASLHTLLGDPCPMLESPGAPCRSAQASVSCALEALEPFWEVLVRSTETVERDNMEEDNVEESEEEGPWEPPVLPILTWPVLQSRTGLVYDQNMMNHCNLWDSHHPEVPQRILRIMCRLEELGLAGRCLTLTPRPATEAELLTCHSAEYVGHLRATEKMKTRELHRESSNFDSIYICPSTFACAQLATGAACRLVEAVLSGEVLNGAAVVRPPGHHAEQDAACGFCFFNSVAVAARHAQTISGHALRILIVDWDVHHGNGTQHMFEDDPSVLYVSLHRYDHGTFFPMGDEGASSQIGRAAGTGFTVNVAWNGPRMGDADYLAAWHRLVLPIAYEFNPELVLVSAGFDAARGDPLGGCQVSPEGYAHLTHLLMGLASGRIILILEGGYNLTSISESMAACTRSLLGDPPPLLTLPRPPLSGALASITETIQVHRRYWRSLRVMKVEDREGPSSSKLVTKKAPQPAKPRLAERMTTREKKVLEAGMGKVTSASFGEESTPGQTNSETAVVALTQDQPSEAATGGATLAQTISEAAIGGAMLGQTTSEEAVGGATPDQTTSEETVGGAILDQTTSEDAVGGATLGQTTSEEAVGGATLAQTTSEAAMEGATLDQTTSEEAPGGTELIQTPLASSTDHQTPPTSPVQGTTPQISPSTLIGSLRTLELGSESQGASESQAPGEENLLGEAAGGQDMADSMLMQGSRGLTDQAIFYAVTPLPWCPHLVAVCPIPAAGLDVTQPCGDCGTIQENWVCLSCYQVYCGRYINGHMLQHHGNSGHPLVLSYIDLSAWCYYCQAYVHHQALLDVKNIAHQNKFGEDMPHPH
Histone deacetylase 8, sequence (Q9BY41 whole entry): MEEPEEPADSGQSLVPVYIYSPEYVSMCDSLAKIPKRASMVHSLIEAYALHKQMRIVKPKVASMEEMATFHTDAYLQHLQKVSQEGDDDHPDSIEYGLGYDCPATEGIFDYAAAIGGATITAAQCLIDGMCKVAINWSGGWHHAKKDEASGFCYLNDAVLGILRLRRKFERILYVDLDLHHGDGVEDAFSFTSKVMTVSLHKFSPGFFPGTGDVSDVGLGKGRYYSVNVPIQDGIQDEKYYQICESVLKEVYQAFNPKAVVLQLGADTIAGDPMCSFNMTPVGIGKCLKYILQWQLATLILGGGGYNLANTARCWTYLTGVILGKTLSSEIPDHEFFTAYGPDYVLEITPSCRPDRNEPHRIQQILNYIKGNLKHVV
Histone deacetylase 5, sequence (Q9UQL6 whole entry): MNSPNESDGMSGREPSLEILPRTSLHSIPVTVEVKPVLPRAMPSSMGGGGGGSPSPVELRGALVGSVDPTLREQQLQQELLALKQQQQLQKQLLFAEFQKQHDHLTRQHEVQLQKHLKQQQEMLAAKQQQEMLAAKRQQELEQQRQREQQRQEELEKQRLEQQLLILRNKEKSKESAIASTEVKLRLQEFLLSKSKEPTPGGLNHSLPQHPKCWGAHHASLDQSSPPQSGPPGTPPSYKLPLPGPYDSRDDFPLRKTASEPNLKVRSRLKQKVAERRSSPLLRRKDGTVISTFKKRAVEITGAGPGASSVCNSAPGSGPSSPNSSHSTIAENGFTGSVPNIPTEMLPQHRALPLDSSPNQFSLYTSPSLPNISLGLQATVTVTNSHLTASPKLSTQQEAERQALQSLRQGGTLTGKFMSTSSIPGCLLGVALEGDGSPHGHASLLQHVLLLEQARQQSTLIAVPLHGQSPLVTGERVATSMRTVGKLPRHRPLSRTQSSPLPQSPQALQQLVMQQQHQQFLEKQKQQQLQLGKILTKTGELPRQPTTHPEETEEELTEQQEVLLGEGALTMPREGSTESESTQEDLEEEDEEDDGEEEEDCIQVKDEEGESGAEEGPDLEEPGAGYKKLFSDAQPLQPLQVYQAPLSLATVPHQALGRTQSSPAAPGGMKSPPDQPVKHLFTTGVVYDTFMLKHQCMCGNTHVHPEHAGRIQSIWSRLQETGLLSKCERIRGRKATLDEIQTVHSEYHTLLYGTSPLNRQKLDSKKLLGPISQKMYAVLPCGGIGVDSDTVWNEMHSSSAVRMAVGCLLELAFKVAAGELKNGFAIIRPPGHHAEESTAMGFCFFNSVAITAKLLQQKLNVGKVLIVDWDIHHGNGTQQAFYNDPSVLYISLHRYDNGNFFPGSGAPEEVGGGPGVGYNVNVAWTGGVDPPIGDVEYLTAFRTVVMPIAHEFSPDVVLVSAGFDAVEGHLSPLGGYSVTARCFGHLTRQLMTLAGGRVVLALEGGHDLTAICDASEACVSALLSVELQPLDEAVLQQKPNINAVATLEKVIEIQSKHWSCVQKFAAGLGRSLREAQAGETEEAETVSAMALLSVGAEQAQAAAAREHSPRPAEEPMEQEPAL

Work on `C[C@H](O)C(=O)CCCCC[C@@H]1NC(=O)[C@H]2CCCN2C(=O)[C@H](Cc2ccccc2)NC(=O)C(C)(C)NC1=O` yielded an IC50 (Histone deacetylase 4 [1]) of 0.33 µM.
`C[C@@H](O)C(=O)CCCCC[C@@H]1NC(=O)[C@H]2CCCN2C(=O)[C@H](Cc2ccccc2)NC(=O)[C@H](n2ccc3ccccc32)NC1=O` gave an IC50 (Histone deacetylase 4 [1]) of 0.02 µM.
With `O=C(/C=C/C1Oc2ccccc2O1)c1ccc(NC(=O)c2ccc(CN3C(=O)c4ccccc4C3=O)cc2)cc1` the IC50 (MCF7 [2]) was 3.45 µM and the IC50 (HepG2 [3]) was 1.96 µM.
With `C[C@@H](O)C(=O)CCCCC[C@@H]1NC(=O)[C@H]2CCCN2C(=O)[C@H](Cc2ccccc2)NC(=O)[C@H](Cc2ccccc2)NC1=O` the IC50 (Histone deacetylase 4 [1]) was 0.28 µM.
Work on `COc1ccc(/C=C\c2cc(OC)c(OC)c(OC)c2)cc1O` [COMBRETASTATIN A4] yielded an IC50 (MCF7 [2]) of 4.85 µM.
With `COc1ccc(/C=C/C(=O)c2ccc(NC(=O)c3ccc(CN4C(=O)c5ccccc5C4=O)cc3)cc2)cc1` the IC50 (MCF7 [2]) was 2.41 µM and the IC50 (HepG2 [3]) was 1.87 µM.
In the case of `CC(C)(C)OC(=O)Nc1cccc(C(=O)/C=C/c2ccc(/C=C/C(=O)NO)cc2)c1`, the IC50 (Histone deacetylase 1 [4]) is reported as 2.9 µM, the IC50 [5] is reported as 0.01 µM and the “inhibition (INH)” value (HT-29) is reported as “<=60%”.
`O=C(/C=C/c1cccc2ccccc12)c1ccc(NC(=O)c2ccc(CN3C(=O)c4ccccc4C3=O)cc2)cc1` gave an IC50 (MCF7 [2]) of 11.3 µM and an IC50 (HepG2 [3]) of 8.07 µM.
Work on `C[C@@H](O)C(=O)CCCCC[C@@H]1NC(=O)[C@H]2CCCN2C(=O)[C@H](Cc2ccccc2)NC(=O)C(C)(C)NC1=O` yielded an IC50 (Histone deacetylase 4 [1]) of 0.03 µM.
Compound `O=C(/C=C/c1ccc([N+](=O)[O-])cc1)c1ccc(NC(=O)c2ccc(CN3C(=O)c4ccccc4C3=O)cc2)cc1` has an IC50 (MCF7 [2]) of 9.78 µM and an IC50 (HepG2 [3]) of 15.8 µM.
With `CN(C)c1ccc(C(=O)NCCCCCC(=O)NO)cc1` the IC50 [6] was 0.024 µM.
`O=C(/C=C/c1ccccc1-c1ccco1)c1ccc(NC(=O)c2ccc(CN3C(=O)c4ccccc4C3=O)cc2)cc1` showed an IC50 (MCF7 [2]) of 5.44 µM and an IC50 (HepG2 [3]) of 9.05 µM.
Compound `O=C(/C=C/c1ccccc1)c1ccc(NC(=O)c2ccc(CN3C(=O)c4ccccc4C3=O)cc2)cc1` has an IC50 (MCF7 [2]) of 14.4 µM and an IC50 (HepG2 [3]) of 12.9 µM.
Compound `O=C(NCCSSCCNC(=O)/C(Cc1ccc(O)c(Br)c1)=N/O)/C(Cc1ccc(O)c(Br)c1)=N/O` [PSAMMAPLIN A] has an IC50 (P388) of 0.3 µg/mL (≈ 0.452 µM).
`O=C(CCCCCNC(=O)c1cc2ccccc2[nH]1)NO` gave an IC50 [6] of 0.014 µM.
With `CC[C@]1(C)NC(=O)[C@H](CCCCCC(=O)[C@@H](C)O)NC(=O)[C@H]2CC(C)(C)CN2C(=O)[C@H](Cc2ccccc2)NC1=O` the IC50 (Histone deacetylase 4 [1]) was 0.09 µM.
For `CCCC(CCC)C(=O)O` [VALPROIC ACID], the IC50 (Histone deacetylase 1 [7]) was 400 µM, the t1/2 [8] was 7 h and the IC50 (Histone deacetylase 4 [9]) was 1000 µM. For the same compound, the IC50 (Histone deacetylase 5) was 1000 µM, the IC50 [10] was 1000 µM and the IC50 (MCF7 [11]) was 230 µM.
`CCC(=O)CCCCC[C@@H]1NC(=O)[C@H]2CCCCN2C(=O)[C@H]([C@@H](C)CC)NC(=O)[C@H](Cc2cc3ccccc3n2OC)NC1=O` gave an IC50 (MCF10) of 0.19 µM, an IC50 (AGS) of 0.19 µM and an IC50 (HepG2 [12]) of 0.19 µM. It also gave an IC50 (Hep 3B2) of 0.19 µM, an IC50 (Huh-7) of 0.19 µM and an IC50 (HA22T cell line) of 0.19 µM. The IC50 [13] was 0.19 µM and the IC50 (MCF7 [11]) was 0.19 µM.
For `Cc1cc(/C=C/C(=O)c2ccc(NC(=O)c3ccc(CN4C(=O)c5ccccc5C4=O)cc3)cc2)cc(C)c1C`, the IC50 (Tubulin beta) was 2.32 µM, the IC50 (Histone deacetylase 1 [14]) was 0.22 µM and the IC50 (Histone deacetylase 2 [15]) was 0.43 µM. For the same compound, the IC50 (MCF7 [2]) was 1.88 µM and the IC50 (HepG2 [3]) was 1.62 µM.
In the case of `CC(/C=C/C(=O)NO)=C\[C@@H](C)C(=O)c1ccc(N(C)C)cc1` [TRICHOSTATIN], the IC50 (T47D [16]) is reported as 0.0264 µM, the IC50 (BT-474) is reported as 0.0333 µM and the IC50 (MCF7 [17]) is reported as 0.0277 µM.
In the case of `CCCC(=O)[O-].[Na+]` [SODIUM BUTYRATE], the IC50 (Histone deacetylase 1 [18]) is reported as 16 µM, the IC50 (Histone deacetylase 2 [19]) is reported as 12 µM and the IC50 (Histone deacetylase 3) is reported as 9 µM. For the same compound, the IC50 (Histone deacetylase 8) was 15 µM, the IC50 (MDA-MB-231) was 600 µM and the IC50 (T47D [20]) was 700 µM. The IC50 (BT-20) was 1400 µM and the IC50 (MCF7 [11]) was 500 µM.
In the case of `O=C(/C=C/c1ccc(Cl)cc1)c1ccc(NC(=O)c2ccc(CN3C(=O)c4ccccc4C3=O)cc2)cc1`, the IC50 (MCF7 [2]) is reported as 4.11 µM and the IC50 (HepG2 [3]) is reported as 3.21 µM.
With `Cc1c[nH]c([C@@H]2NC(=O)[C@H](CCCCCC(=O)[C@H](C)O)NC(=O)[C@H]3CCCN3C(=O)[C@H](Cc3ccccc3)NC2=O)n1` the IC50 (Histone deacetylase 4 [1]) was 350 µM.
`COc1ccc(/C=C/C(=O)c2ccc(NC(=O)c3ccc(CN4C(=O)c5ccccc5C4=O)cc3)cc2)c(OC)c1` showed an IC50 (MCF7 [2]) of 2.09 µM and an IC50 (HepG2 [3]) of 1.75 µM.
`CC[C@@H]1NC(=O)[C@H](CCCCCC(=O)[C@H](C)O)NC(=O)[C@H]2CCCN2C(=O)[C@H](Cc2ccccc2)NC1=O` gave an IC50 (Histone deacetylase 4 [1]) of 1 µM.
Compound `C[C@H](O)C(=O)CCCCC[C@@H]1NC(=O)[C@H]2CCCN2C(=O)[C@H](Cc2ccccc2)NC(=O)C(C2CCCCC2)(C2CCCCC2)NC1=O` has an IC50 (Histone deacetylase 4 [1]) of 0.67 µM.
`O=C(/C=C/c1cc2ccc1CCc1ccc(cc1)CC2)c1ccc(NC(=O)c2ccc(CN3C(=O)c4ccccc4C3=O)cc2)cc1` gave an IC50 (MCF7 [2]) of 5.28 µM and an IC50 (HepG2 [3]) of 8.47 µM.
Compound `CC[C@]1(C)NC(=O)[C@H](CCCCCC(=O)[C@@H](C)O)NC(=O)[C@H]2CCCN2C(=O)[C@H](Cc2ccccc2)NC1=O` has an IC50 (Histone deacetylase 4 [1]) of 0.05 µM.
